{
  "source": "patent US20120107903A1",
  "about": "(priority 2010, published 2012)",
  "biological_target": "Ralstonia pickettii 12D FAD dependent oxidoreductase (SEQ ID NO:9), variant QYY, S327Q/S366Y/A473Y (Ralstonia pickettii, UniProt A0ABM9ITV6, A473Y/S327Q/S366Y)",
  "format": "biochemical",
  "details": "read-out: Km (Mal)",
  "data": [
    {"smiles": "OC[C@H]1O[C@H](O[C@H]2[C@H](O)[C@@H](O)C(O)O[C@@H]2CO)[C@H](O)[C@@H](O)[C@@H]1O", "note": "(stereo partly shown) [Mal, maltose]", "values": [
      {"measurement": "Km", "value": "> 100", "unit": "mM"}
    ]}
  ]
}
